According to patent publication US11958880B2, “Means and methods for site-specific functionalization of polypeptides” (LUDWIG-MAXIMILIANS-UNIVERSITÄT MÜNCHEN, priority 2014, dated 2024):

How the values were obtained:
Format in all cases: biochemical
[1] = molecular target: T1, tubulin tyrosine ligase (TTL) (Canis lupus familiaris, UniProt A0A8I3N5B1); assay: TTL reaction on GBP4 followed by tryptic digest and HPLC-MS/MS; conditions: 1 mM tyrosine derivative, 1 μM TTL, 5 μM nanobody, 37° C., 24 h
T1 construct: His-Tag (N); SUMO3 (Sumo) (N); made in house; host or cells: E. coli BL21(DE3)
T1 sequence (A0A8I3N5B1 1-377): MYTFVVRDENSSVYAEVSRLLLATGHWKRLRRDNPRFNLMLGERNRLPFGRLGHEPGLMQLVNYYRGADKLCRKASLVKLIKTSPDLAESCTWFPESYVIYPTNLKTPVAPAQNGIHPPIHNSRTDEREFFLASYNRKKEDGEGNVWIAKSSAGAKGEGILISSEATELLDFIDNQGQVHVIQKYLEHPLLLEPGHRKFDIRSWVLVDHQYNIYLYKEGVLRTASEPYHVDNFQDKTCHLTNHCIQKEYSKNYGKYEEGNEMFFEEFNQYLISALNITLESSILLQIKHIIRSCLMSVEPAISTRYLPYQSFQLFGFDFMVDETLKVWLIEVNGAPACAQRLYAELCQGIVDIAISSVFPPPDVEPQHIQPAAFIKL
Description: Nanobodies were tyrosinated as described in Example 8. Proteins were separated by SDS-PAGE. Protein bands of interest were excised, soaked with 100 μL 50 mM (NH4)2CO3/ACN 1:1 and incubated at 30° C. for 10 min. The supernatant was removed and the gel pieces were incubated in 50 mM (NH4)2CO3 at 30° C. for further 10 min. The two incubation steps were repeated until the pieces were colorless. Hereafter, the gel pieces were dehydrated by the addition of 25 μL ACN, the supernatant removed and the gels were dried under reduced pressure. In-gel digest was performed in a total volume of 20 μL 50 mM (NH4)2CO3 at 37° C. for 12 h using 0.05 μg Trypsin. 20 μL ACN+0.5% TFA were added, the mixture was incubated in an ultrasonic bath, the supernatant transferred to LC glass vials, the solvent was removed under reduced pressure and the residual peptides resuspended in 6 μL 95% H2O+0.1% TFA, 5% ACN+0.1% TFA solution. Peptides were separated by HPLC and analysed by MSMS experiments.
Tyrosination reactions were performed in a 50 μL solution consisting of 20 mM MES/K pH 7.0, 100 mM KCl, 10 mM MgCl2, 2.5 mM ATP, 1 mM tyrosine derivative, 1 μM TTL, 5 μM nanobody and 5 mM reduced glutathione in case of compound 3 and 5 mM DTT in case of compound 1, 2, 9 and tyrosine (6), respectively. The mixture was incubated at 37° C. for 24 h. Proteins were separated by SDS-PAGE. Protein bands of interest were excised, soaked with 100 μL 50 mM (NH4)2CO3/ACN 1:1 and incubated at 30° C. for 10 min. The supernatant was removed and the gel pieces were incubated in 50 mM (NH4)2CO3 at 30° C. for further 10 min. The two incubation steps were repeated until the pieces were colourless. Hereafter, the gel pieces were dehydrated by the addition of 25 μL ACN, the supernatant removed and the gels were dried under reduced pressure. In-gel digest was performed in a total volume of 20 μL 50 mM (NH4)2CO3 at 37° C. for 12 h using 0.05 μg trypsin (Thermo Fisher Scientific, USA). 20 μL ACN+0.5% TFA was added, the mixture incubated in an ultrasonic bath, the supernatant transferred to LC glass vials, the solvent removed under reduced pressure and the residual peptides resuspended in 6 μL 95% H2O+0.1% TFA, 5% ACN+0.1% TFA solution. Peptides were separated by HPLC and analyzed by MSMS experiments.

[2] = molecular target: T1, tubulin tyrosine ligase (TTL); assay: TTL tyrosination of carboxyfluorescein-labeled Tub-tag peptide (CF-Tub-tag), isocratic HPLC-fluorescence; conditions: TTL:peptide 1:200, after 120 min of incubation at 37° C.
Description: Tyrosination reactions were performed in a 250 μL solution consisting of 20 mM MES/K pH 7.0, 100 mM KCl, 10 mM MgCl2, 2.5 mM ATP, 1 mM tyrosine derivative, 0.2 mM peptide, 1 μM TTL and 5 mM DTT in case of compound 1, 2, 4 and 5 or 5 mM reduced glutathione in case of compound 3, respectively. The mixture was incubated at 37° C. and several aliquots (25 μL) were taken within 24 h, mixed with equal volumes of H2O+0.1% TFA and subjected either to isocratic analytical HPLC equipped with a fluorescence detector (Method A) or analytical UPLC-MS analysis. Quantities of substrate and product peptides were estimated from the corresponding peak-area in the fluorescence or UV detection spectrum (Ex/Em: 495/517).
Tyrosination reactions were performed in a 250 μL solution consisting of 20 mM MES/K pH 7.0, 100 mM KCl, 10 mM MgCl2, 2.5 mM ATP, 1 mM tyrosine derivative, 0.2 mM CF-Tub-tag 13, 1 μM TTL and 5 mM DTT in case of compound 2 or 5 mM reduced glutathione in case of compound 1, respectively. The mixture was incubated at 37° C. and several aliquots (25 μL) were taken, mixed with equal volumes of H2O+0.1% TFA and subjected to isocratic analytical HPLC equipped with a fluorescence detector (Method: A=H2O+0.1% TFA, B=MeCN+0.1% TFA; 35% B, 0-15 min, 10-100% B 15-17 min, 100% B 17-22 min, 100-35% B 22-25 min and 35% B 25-30 min.). […]

[3] = molecular target: T1, tubulin tyrosine ligase (TTL); assay: TTL-mediated incorporation of tyrosine derivative to the C-terminus of GBP4 followed by SPAAC to DBCO-biotin (SDS-PAGE/western blot); conditions: for GBP4 converted (C-terminally modified GBP4): one hour; for GBP4 conversion: three hours
Description: Tyrosination reactions were performed in a 150 μL solution consisting of 20 mM MES/K pH 7.0, 100 mM KCl, 10 mM MgCl2, 2.5 mM ATP, 1 mM tyrosine derivative, 0.1-1 μM TTL, 5 μM nanobody and 5 mM reduced glutathione in case of compounds containing azides or 5 mM DTT for all other derivatives, respectively. The mixture was incubated at 37° C. for 1-3 h.
Tyrosination reactions were performed as described in Example 16 using compound 3, 5 mM reduced glutathione and a ratio of 10:1 GBP4/TTL for 3 h. The reaction mixtures were rebuffered to Dulbecco's PBS pH 7.4 and incubated with 30 eq. of Sulfo-Cy5-DBCO (Jena Bioscience GmbH, Germany) or DBCO-PEG4-biotin (Jena Bioscience GmbH, Germany) at 30° C. for 4 h. Proteins were separated by SDS-PAGE. Biotinylated nanobodies were wet blotted onto a nitrocellulose membrane using a Bio-Rad Mini-Protean Tetra System (250 mA, one hour). A streptavidin peroxidase conjugate (Merck Millipore, Germany) was used for detection. Fluorescently labeled nanobodies were visualized by a Fuji FLA-5000 laser imager (634 nm excitation, LPG-filter) (Fujifilm, Japan).

Compound	C-terminal addition to GBP4 shown by HPLC-MS/MS [1]	conjugate yield [2] [%]	GBP4 converted (C-terminally modified GBP4) ([3]; ratio 1:5 TTL/GBP4, 37° C.) [%]	GBP4 conversion ([3]; ratio 1:5 TTL/GBP4, 37° C.) [%]	GBP4 converted (C-terminally modified GBP4) ([3]; ratio 1:10 TTL/GBP4, 37° C.) [%]	GBP4 conversion ([3]; ratio 1:10 TTL/GBP4, 37° C.) [%]
N[C@@H](Cc1ccc(O)c(C=O)c1)C(=O)O [compound 1, 3-formyl-L-tyrosine]	successful C-terminal addition	63	–	–	–	–
N[C@@H](Cc1ccc(O)c([N+](=O)[O-])c1)C(=O)O [compound 2, 3-nitro-L-tyrosine]	successful C-terminal addition	–	–	–	–	–
[N-]=[N+]=Nc1cc(C[C@H](N)C(=O)O)ccc1O [compound 3, 3-azido-L-tyrosine]	successful C-terminal addition	80	82	99	71	88
N[C@@H](Cc1ccc(O)cc1)C(=O)O [compound 6, L-tyrosine, reference compound]	successful C-terminal addition	–	–	–	–	–
Nc1cc(C[C@H](N)C(=O)O)ccc1O [compound 9, 3-amino-L-tyrosine]	successful C-terminal addition	–	–	–	–	–
